Assay results reported in patent US7052871B2, “Methods of improving transformation efficiency of plants with auxin responsive promoter sequences” (Pioneer Hi-Bred International, Inc., priority 2000, dated 2006).

Experiments:
[1] = test system: ZmAxig1 transcripts in the tapetum; settings: treated plants (FIG. 7)
Source text: (§1) Quartet/early-uninucleate stage anthers from dicamba-treated or non-treated plants were harvested and embedded for in situ hybridization or frozen for mRNA isolation as described above.

[2] = test system: ZmAxig1 mRNA; assay: Northern blot of mRNA from treated plants probed with SEQ ID No. 12 (CJLP181); format: in vivo, Zea mays; settings: for hybridization of SEQ ID No. 12 probe with mRNA from anther or entire aerial portion of treated plants: anther or entire aerial portion of treated plants (FIG. 4)
[3] = test system: male fertility of pZmAxig1:Ms45 plants; assay: Fertility restoration in ms45 male sterile maize plants transformed with V2 (pZmAxig1:Ms45); format: in vivo, Zea mays
Source text: A second DNA plasmid was constructed by combining the ZmAxig1 promoter (1306 bases 5′ of start codon; SEQ ID NO: 16) with the Ms45 coding sequence and 35S:PAT in a T-DNA vector. This plasmid was cointegrated with Japan Tobacco plasmid pSB1 to create a second suitable vector, V2.
Maize GS3Ms45EX4 embryos, segregating for homozygous ms45 (male sterile) and Ms45/ms45 (male fertile) genotypes, were transformed with the first and second vectors using Agrobacterium.
Transformed cell lines homozygous for the ms45 male sterile genotype were screened by quantitative PCR screening and advanced for regeneration into plants. Positive lines were transferred to 289B medium, an MS-based medium containing bialaphos and carbenicillin, with lower sucrose and hormone levels, to initiate plant regeneration. Following somatic embryo maturation (2–3 weeks), well-developed somatic embryos were transferred to medium for germination and transferred to the lighted culture room. Approximately 7 days later, developing plantlets were transferred to medium in tubes for 7 days until plantlets were well established. Plants were then transferred to inserts in flats (equivalent to 2.5″ pot) containing potting soil and grown for one week in a growth chamber, subsequently grown an additional 1–2 weeks in the greenhouse, then transferred to classic 600 pots (1.6 gallon) and grown to maturity.
From each of 20 independent callus lines transformed with V2, six regenerated plants were grown in the greenhouse. […] The plants were scored for fertility after tassels emerged.

[4] = test system: ZmAxig1 expression in anthers
Method: Progeny of transgenic maize plants, hemizygous for the maize anther-preferred promoter 5126 (U.S. Pat. Nos. 5,689,049 and 5,689,051) driving DAM methylase linked with 35S:PAT (p5126:DAM/35S:PAT), were grown in the greenhouse. Expression of p5126:DAM is known to ablate the tapetum prior to the quartet stage of microspore development, which results in male sterile plants.
Plants segregating for male fertile/glufosinate-ammonium susceptible phenotype (wild-type) or for male sterile/glufosinate-ammonium resistant phenotype (p5126:DAM/35S:PAT), were treated with a dicamba soil drench as described above, or were not treated. Quartet/early-uninucleate stage anthers were harvested from these plants and mRNA was isolated with the QuickPrep® Micro mRNA purification kit (Amersham Pharmacia, Piscataway, N.J.) according to the manufacturer's instructions.
as §1

[5] = test system: cDNA fragments (w0h051.7, ZmAxig1); settings: anthers; two daily soil drenches of 12 μl dicamba formulation in 450 ml water
Source text: Anthers containing microsporocytes at meiosis […] through early uninucleate stages of development were harvested on the third day and frozen. Anthers containing microsporocytes at prophase through early uninucleate stages of development were harvested from non-treated plants. Frozen tissues were ground and total RNA extracted with Tripure™ isolation reagent (Boehringer Mannheim, Indianapolis, Ind.) according to the manufacturer's instructions.
RNA isolated from anthers of three dicamba-treated plants and three non-treated plants was sent to laboratories of CuraGen Corporation (New Haven, Conn.) for quantitative expression profiling. […] (FIG. 3)

[6] = test system: ZmAxig1 mRNA in BMS (Black Mexican Sweet) maize cells; assay: Northern blot of mRNA from BMS cells cultured on auxin-containing medium, probed with SEQ ID No. 12; format: cell-based, Zea mays; settings: BMS cultured cells (FIG. 4)

SMILES: COc1c(Cl)ccc(Cl)c1C(=O)O [dicamba]
- in situ hybridization of ZmAxig1 antisense RNA probe to RNA in tapetum of anthers and microspores [1]: strong in situ hybridization
- hybridization of SEQ ID No. 12 probe with mRNA from anthers of treated plants ([2]; anthers, northern blot (FIG. 3)): hybridized very strongly
- hybridization of SEQ ID No. 12 probe with mRNA from tassel or whorl leaf of treated plants ([2]; tassel or whorl leaf, northern blot (FIG. 3)): to a lesser degree
- plants with fertile phenotype ([3]; of 81 treated V2 plants): 33 plants
- plants with shedder (partially fertile) phenotype ([3]; of 81 treated V2 plants): 36 plants
- plants that produced anthers with pollen ([3]; of 81 treated V2 plants, daily soil drench 3 μl dicamba formulation, one to three days): 69 plants
- viability of pollen from treated plants ([3]; pollen from 9 treated plants used to pollinate non-transformed ears, kernels germinated): viable
- ZmAxig1 expression in anthers of treated plants (Northern blot) ([4]; quartet/early-uninucleate stage anthers): induced
- induction of ZmAxig1 expression in anthers from wild-type male fertile plants ([4]; soil drench, quartet/early-uninucleate stage anthers (FIG. 6)): induced expression of ZmAxig1
- induction of ZmAxig1 expression in anthers from male sterile p5126:DAM/35S:PAT plants ([4]; soil drench, tapetum-ablated male sterile plants (FIG. 6)): not in anthers from male sterile plants
- expression level of induced cDNA fragments relative to the control [5]: greater than 2.5 fold

SMILES: C=CCN(CC=C)C(=O)C(Cl)Cl [Dichlormid]
- hybridization of SEQ ID No. 12 probe with mRNA from anther or entire aerial portion of treated plants [2]: did not hybridize

SMILES: COCC(=O)N(c1c(C)cccc1C)C(C)C(=O)OC (stereo not shown) [Metalaxyl]
- hybridization of SEQ ID No. 12 probe with mRNA from anther or entire aerial portion of treated plants [2]: did not hybridize

SMILES: CC1=C(C(=O)Nc2ccccc2)SCCO1 [Carboxin]
- hybridization of SEQ ID No. 12 probe with mRNA from anther or entire aerial portion of treated plants [2]: did not hybridize

SMILES: CN(C)C(=O)Nc1ccc(Cl)c(Cl)c1 [Diuron]
- hybridization of SEQ ID No. 12 probe with mRNA from anther or entire aerial portion of treated plants [2]: did not hybridize

SMILES: O=C(O)COc1ccc(Cl)cc1Cl [2,4-D, 2,4-dichlorophenoxyacetic acid]
- hybridization of SEQ ID No. 12 probe with mRNA from BMS maize cultured on medium containing the auxin [6]: hybridized

SMILES: O=C(O)c1nc(Cl)ccc1Cl [clopyralid]
- plants showing partial to complete male fertile phenotypes, foliar application ([3]; 10 μl clopyralid formulation, foliar application with 1 ml water, homozygous ms45 V2 progeny): Two of five
- plants showing partial to complete male fertile phenotypes, soil drench application ([3]; 10 μl clopyralid formulation, soil drench with 200 ml water, homozygous ms45 V2 progeny): three of six

SMILES: NC(=O)NS(=O)(=O)c1ccccc1Cl [CBSU]
- hybridization of SEQ ID No. 12 probe with mRNA from anther or entire aerial portion of treated plants [2]: did not hybridize
